Like-named read-outs stand apart in the source and are kept apart here.
Tests used:
Test in all cases: SPR binding to immobilized biotinylated RNA
[1] = test system: (CUG)10 RNA (SEQ ID NO: 3); settings: for ka / kd / Kd / Residence time (t1/2) for compound binding to RNA / Off-rates (koff) / On-rates (kon) / apparent KD: (CUG)10; for sequence selectivity: CUG repeats versus other RNAs
Method: (§1) SPR binding measurements were performed on a Biacore-X instrument (Biacore, Inc., Uppsala, Sweden) with two flow channels (FC1 and FC2). 5′-Biotinylated-RNA sequences, with a C6 linker separating the biotin label from the RNA (Integrated DNA Technologies Inc.) were immobilized on streptavidin (Rockland Immunochemicals) functionalized carboxylmethyl dextran coated sensor chips (CM5, G.E. Healthcare) using EDC/NHS (Advanced ChemTech) coupling chemistry. Filtered (0.2μ), degassed and autoclaved HBS-N buffer (0.01M Hepes, pH=7.4, 0.15 M NaCl) was employed as sample and as running buffer for all SPR experiments. A typical protocol for an experiment is as follows: A CM5 sensor chip was allowed to equilibrate to room temperature and then docked into the instrument. Following priming with running buffer, FC1 and FC2 were conditioned by manual injection of 20 μL aqueous NaOH (50 mM) at a flow rate of 30 μL/min. This was repeated 3 times followed by a wash command. Next, the carboxyl groups on the sensor chip surface in both flow cells were activated separately by injecting 60 μL of freshly prepared 1:1 mixture of EDC (0.4 M) and NHS (0.1 M) at a 5 μL/min flow rate followed by a wash. […] After washing, the surface was deactivated with 60 μL injection of ethanolamine (1M, pH=8.5) at 5 μL/min. The flow cells were primed, and the streptavidin surface in FC1 alone was blocked with 30 μL of biotin (20 μM in HBS-N) at 5 μL/min. The RNA (200 nM in running buffer, HBS-N) to be immobilized was unfolded by heating above its predicted melting temperature in a heated block for 2 min and then allowed to refold by cooling gradually to room temperature. The RNA was then immobilized in FC2 alone to response units ranging from 200-1000 RU using a 5 μL/min flow rate. Representative sensorgrams for the immobilization procedure is shown in FIGS. 2A-B. Two 20 μL aliquots of NaCl (0.5 M) were injected at a 30 μL/min flow rate to remove non-specifically bound RNA. The level of RNA immobilized was noted when the baseline was stable, usually after repeated buffer injection followed by a “prime” command. Binding measurements were performed by flowing various concentrations of the compounds to be analyzed over the immobilized RNA and recording the reference-subtracted (FC2−FC1) sensorgrams. For kinetic analysis, at least five sensorgrams corresponding to different concentrations of compound (usually ranging from 0.05-1 μM in HBS-N) were obtained using flow rates of either 60 μL/min or 30 μL/min. The experimental sensorgrams were globally fitted to a 1:1 binding equation (Biaevaluation software) to obtain association rates (ka) and dissociation rates ([…]) as well as equilibrium binding constants (KD). To measure the binding stoichiometry (n), the relations in equations (1-3) below were used: […]
(§2) where RUmax is the maximum resonance response unit at saturation, RURNA is the amount RU of RNA immobilized, n is the stoichiometry, MWcompound and MWRNA are molecular weights of compound and RNA respectively, and RUeq represents the resonance response at steady-state (equilibrium). The response units at equilibrium were subjected to Scatchard binding plots of (r/Cfree vs. r).
This technique allows the association and dissociation rates (ka and kd), equilibrium binding constants (KD), and the binding stoichiometry (n) to be measured in a label-free format (Liu and Wilson, “Quantitative Analysis of Small Molecule-nucleic Acid Interactions with a Biosensor Surface and Surface Plasmon Resonance Detection,” Methods Mol. Biol. 613:1-23 (2010), which is hereby incorporated by reference in its entirety).

[2] = test system: (CUG)2 RNA (SEQ ID NO: 1); settings: Table 7, SPR
Method: as §1, §2
(§3) The binding characteristics of compounds 3-11 were evaluated against pathogenic CUG^exp RNA and other RNA sequences by SPR. This technique allows the association and dissociation rates (ka and kd), equilibrium binding constants (KD), and the binding stoichiometry (n) to be measured in a label-free format (Liu and Wilson, “Quantitative Analysis of Small Molecule-nucleic Acid Interactions with a Biosensor Surface and Surface Plasmon Resonance Detection,” Methods Mol. Biol. 613:1-23 (2010), which is hereby incorporated by reference in its entirety). […]

[3] = target: HIV-1 FSS RNA (SEQ ID NO: 7)
Method: as §1
as §2, with “r). […]” for “r).”
SPR and fluorescence titration experiments, performed using the protocol described in Examples 3 and 4 above, except using as the target a highly conserved RNA sequence responsible for regulating the production of the Gag-Pol polyprotein via a −1 ribosomal frameshift, which occurs along a “slippery sequence” in gag-pol mRNA (SEQ ID NO: 7). This “frameshift stimulatory sequence” (or “HIV-1 FSS”) consists of an upper stemloop and a lower stem, separated by a purine bulge in the most common types of HIV (FIG. 19). For the fluorescent titration experiments, the upper stemloop of SEQ ID NO: 7 was employed. Cell uptake and toxicity studies were carried out using human fibroblasts according to Example 5 above.

[4] = test system: (CCUG)10 RNA (SEQ ID NO: 4); settings: for Residence time (t1/2) for compound binding to RNA / Off-rates (koff) / On-rates (kon): (CCUG)10
Method: as §1, §2, §3

[5] = test system: (CAG)10 RNA (SEQ ID NO: 5); settings: for Off-rates (koff) / On-rates (kon): SPR
Method: as §1, §2, §3

[6] = test system: CUG-CAG duplex ("Duplex") (SEQ ID NO: 6); settings: Duplex
Method: as §1, §2, §3

Compound | ka ([1]; Table 7, SPR) | kd ([1]; Table 7, SPR) | Kd ([1]; Table 7, SPR, read-out: KD) [nM] | Residence time (t1/2) for compound binding to RNA [1] [s] | Off-rates (koff) ([1]; SPR) [s⁻¹] | On-rates (kon) ([1]; SPR) [M⁻¹ s⁻¹] | Residence time (t1/2) for compound binding to RNA [4] [s] | Off-rates (koff) ([4]; SPR) [s⁻¹] | On-rates (kon) ([4]; SPR) [M⁻¹ s⁻¹] | also measured
CCc1nc2cc3ccccc3cc2cc1C(=O)N1CCC[C@H]1C(=O)N(C)[C@@H](C/C=C/C[C@@H](C(=O)N(C)[C@@H](CCCCN)C(=O)NCCCN)N(C)C(=O)[C@@H]1CCCN1C(=O)c1cc2cc3ccccc3cc2nc1CC)C(=O)N(C)[C@@H](CCCCN)C(=O)NCCCN [22 (E)] | bka = 1.2 ± 0.3E+4/M * s | kd = 8.7 ± 0.3E−4/s | 72 | – | – | – | – | – | – | ka [2]: ka = 1.9 ± 0.4E+4/M * s; kd [2]: kd = 8 ± 4E−4/s
CCc1nc2cc3ccccc3cc2cc1C(=O)N1CCC[C@H]1C(=O)N(C)[C@@H](C/C=C\C[C@@H](C(=O)N[C@@H](CCCCN)C(=O)NCCCN)N(C)C(=O)[C@@H]1CCCN1C(=O)c1cc2cc3ccccc3cc2nc1CC)C(=O)N[C@@H](CCCCN)C(=O)NCCCN [21 (Z)] | ka = 1.6 ± 0.3E+4/M * s | kd = 1.6 ± 0.1E−3/s | 102 | – | – | – | – | – | – | –
CCc1nc2cc3ccccc3cc2cc1C(=O)N[C@@H](C/C=C\C[C@H](NC(=O)c1cc2cc3ccccc3cc2nc1CC)C(=O)N1CCC[C@H]1C(=O)N[C@@H](Cc1ccccc1)C(=O)NCCCN)C(=O)N1CCC[C@H]1C(=O)N[C@@H](Cc1ccccc1)C(=O)NCCCN [Compound 19] | – | – | – | – | – | – | – | – | – | Kd ([3]; SPR, read-out: apparent KD): 102 ± 0.021 nM
Neomycin [reference compound] | – | – | – | 13.70 | 0.0507 | 125000 | 3.55 | 0.195 | 109000 | Kd ([1]; SPR, read-out: apparent KD): 409.6 ± 0.89 nM; Kd ([4]; SPR, (CCUG)10, running text, read-out: apparent KD): 1960 ± 714 nM
CCc1nc2cc3ccccc3cc2cc1C(=O)N1CCC[C@H]1C(=O)N[C@@H](C/C=C/C[C@H](NC(=O)[C@@H]1CCCN1C(=O)c1cc2cc3ccccc3cc2nc1CC)C(=O)N(C)[C@@H](CCCCN)C(=O)NCCCN)C(=O)N(C)[C@@H](CCCCN)C(=O)NCCCN [20 (E)] | ka = 1.8 ± 0.9E+4/M * s | kd = 1.4 ± 0.6E−3/s | 83 | – | – | – | – | – | – | –
NCCCC[C@H](NC(=O)[C@H](C/C=C\C[C@H](NC(=O)[C@@H]1CCCN1)C(=O)N[C@@H](CCCCN)C(=O)NCCCN)NC(=O)[C@@H]1CCCN1)C(=O)NCCCN [Compound 6] | – | – | – | 19.91 | 0.0348 | 132000 | 2.32 | 0.299 | 13600 | apparent KD ([1]; SPR): modest affinity; sequence selectivity ([1]; SPR): neither displayed any selectivity; Residence time (t1/2) for compound binding to RNA [5]: 36.09 s; Off-rates (koff) [5]: 0.0192 s⁻¹; On-rates (kon) [5]: 125000 M⁻¹ s⁻¹; Residence time (t1/2) for compound binding to RNA [3]: 26.96 s; Off-rates (koff) ([3]; SPR): 0.0257 s⁻¹; On-rates (kon) ([3]; SPR): 221000 M⁻¹ s⁻¹
CCc1nc2cc3ccccc3cc2cc1C(=O)N1CCC[C@H]1C(=O)N(C)[C@@H](C/C=C\C[C@@H](C(=O)N(C)[C@@H](CCCCN)C(=O)NCCCN)N(C)C(=O)[C@@H]1CCCN1C(=O)c1cc2cc3ccccc3cc2nc1CC)C(=O)N(C)[C@@H](CCCCN)C(=O)NCCCN [22 (Z)] | ka = 9.2 ± 0.4E+3/M * s | kd = 3 ± 2E−3/s | 378 | – | – | – | – | – | – | –
CCc1nc2cc3ccccc3cc2cc1C(=O)N[C@@H](CCCCN)C(=O)N[C@@H](C/C=C\C[C@H](NC(=O)[C@H](CCCCN)NC(=O)c1cc2cc3ccccc3cc2nc1CC)C(=O)N1CCC[C@H]1C(=O)NCCCN)C(=O)N1CCC[C@H]1C(=O)NCCCN [Compound 8] | – | – | – | 228.71 | 0.00303 | 24600 | 152.98 | 0.00453 | 15400 | apparent KD ([1]; SPR): reduced affinity; sequence selectivity ([1]; SPR): no selectivity for CUG or CCUG repeats relative to duplex CUG-CAG or HIV-1 FSS RNAs; Residence time (t1/2) for compound binding to RNA [5]: 116.86 s; Off-rates (koff) [5]: 0.00593 s⁻¹; On-rates (kon) [5]: 12600 M⁻¹ s⁻¹; Residence time (t1/2) for compound binding to RNA [6]: 255.72 s; Off-rates (koff) ([6]; SPR): 0.00271 s⁻¹; On-rates (kon) ([6]; SPR): 29000 M⁻¹ s⁻¹

Source: patent US20140050778A1, “NUCLEIC ACID BINDING COMPOUNDS, METHODS OF MAKING, AND USE THEREOF” (UNIVERSITY OF ROCHESTER, priority 2010, published 2014)
